Test results published in patent publication US20250026752A1, “POSITIVE ALLOSTERIC MODULATORS OF THE MUSCARINIC ACETYLCHOLINE RECEPTOR M4” (Vanderbilt University, priority 2021, published 2025).

How the values were obtained:
human mAChR M4 = target: T1, human mAChR M4 (Homo sapiens, UniProt P08173); test: mAChR M4 cell-based functional assay: calcium flux (Fluo-4, FDSS), positive allosteric modulator activity on the EC20 acetylcholine response, hM4-Gqi5 CHO-K1 cells; conditions: for Emax at 30 µM: CHO-K1, human M4, % ACh maximum at 30 μM; for EC50: human M4, PAM activity on EC20 acetylcholine response, calcium flux, read-out: Human M4 EC50
T1 construct: expressed in transfected cells; host or cells: CHO-K1 (ATCC), stably expressing hM4 and Gqi5
T1 sequence (P08173 1-479): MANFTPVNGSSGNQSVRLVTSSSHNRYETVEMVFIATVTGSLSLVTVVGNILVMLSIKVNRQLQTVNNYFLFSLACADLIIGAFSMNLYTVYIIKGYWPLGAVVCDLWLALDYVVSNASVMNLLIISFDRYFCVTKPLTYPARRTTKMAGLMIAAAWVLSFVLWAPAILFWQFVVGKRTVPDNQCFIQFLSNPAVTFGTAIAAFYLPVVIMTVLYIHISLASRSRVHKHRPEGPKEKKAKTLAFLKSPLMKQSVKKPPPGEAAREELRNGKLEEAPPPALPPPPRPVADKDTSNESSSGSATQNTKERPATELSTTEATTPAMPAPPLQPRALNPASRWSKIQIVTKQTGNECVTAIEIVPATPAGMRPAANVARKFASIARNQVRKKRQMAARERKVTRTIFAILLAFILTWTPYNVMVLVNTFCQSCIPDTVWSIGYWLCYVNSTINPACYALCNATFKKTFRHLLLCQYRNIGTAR
In short: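 Potentiation was taken as the concentration-dependent rise in the EC20 acetylcholine calcium response, fitted by a four-parameter logistic with EC20 as baseline. Fluo-4-loaded hM4-Gqi5 CHO-K1 cells received 11-point, threefold-diluted compound before acetylcholine at 144 s; FDSS read at 1 Hz.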

[1] = hepatotoxicity of AChE inhibitors; cited from earlier work
[2] = without causing catalepsy; cited from earlier work
[3] = Alzheimer's disease patients; cited from earlier work

Row | Compound | Emax at 30 µM (human mAChR M4) | EC50 (human mAChR M4) | elevated liver transaminases observed in patients [1] | activity in animal models with profiles similar to known antipsychotic drugs [2] | effect on psychotic behavioral symptoms (delusions, suspiciousness, vocal outbursts, hallucinations) [3]
1 | COc1ccc2nc(C)nc(N3CCc4ncc(-c5cc(F)ccc5C)cc4C3)c2c1 [Compound 313, 4-(3-(5-fluoro-2-methylphenyl)-7,8-dihydro-1,6-naphthyridin-6(5H)-yl)-6-methoxy-2-methylquinazoline] | 52% | 4360 nM | – | – | –
2 | COc1ccc2nc(C)nc(N3CCc4ncc(-c5ccccc5C)cc4C3)c2c1 [Compound 314, 6-methoxy-2-methyl-4-(3-(o-tolyl)-7,8-dihydro-1,6-naphthyridin-6(5H)-yl)quinazoline] | 77% | 4670 nM | – | – | –
3 | Cc1ccc2nc(C)nc(N3CCc4ncc(-c5ccccc5C)cc4C3)c2c1 [Compound 316, 2,6-dimethyl-4-(3-(o-tolyl)-7,8-dihydro-1,6-naphthyridin-6(5H)-yl)quinazoline] | 93% | 1600 nM | – | – | –
4 | Cc1ccc2nc(C)nc(N3CCc4ncc(-c5cc(F)ccc5C)cc4C3)c2c1 [Compound 317, 4-(3-(5-fluoro-2-methylphenyl)-7,8-dihydro-1,6-naphthyridin-6(5H)-yl)-2,6-dimethylquinazoline] | 91% | 2800 nM | – | – | –
5 | Nc1c2c(nc3ccccc13)CCCC2 [tacrine] | – | – | about 30 % of patients | – | –
6 | CCCCCCOc1nsnc1C1=CCCN(C)C1 [xanomeline] | – | – | – | active in animal models | reduce psychotic behavioral symptoms

Continued by falling EC50 (human mAChR M4), values first:

Row | Emax at 30 µM (human mAChR M4) | EC50 (human mAChR M4) | Compound | elevated liver transaminases observed in patients [1] | activity in animal models with profiles similar to known antipsychotic drugs [2] | effect on psychotic behavioral symptoms (delusions, suspiciousness, vocal outbursts, hallucinations) [3]
7 | 77% | 180 nM | Cc1nc(N2CCc3ncc(-c4cnc(F)cc4C)cc3C2)c2cc(Cl)ccc2n1 [Compound 311, 6-chloro-4-(3-(6-fluoro-4-methylpyridin-3-yl)-7,8-dihydro-1,6-naphthyridin-6(5H)-yl)-2-methylquinazoline] | – | – | –
8 | 76% | 150 nM | COc1ccc2nc(C)nc(N3CCc4ncc(-c5cnc(F)cc5C)cc4C3)c2c1 [Compound 312, 4-(3-(6-fluoro-4-methylpyridin-3-yl)-7,8-dihydro-1,6-naphthyridin-6(5H)-yl)-6-methoxy-2-methylquinazoline] | – | – | –
9 | 92% | 70 nM | Cc1ccc2nc(C)nc(N3CCc4ncc(-c5cnc(F)cc5C)cc4C3)c2c1 [Compound 318, 4-(3-(6-fluoro-4-methylpyridin-3-yl)-7,8-dihydro-1,6-naphthyridin-6(5H)-yl)-2,6-dimethylquinazoline] | – | – | –
10 | 86% | 60 nM | Cc1cc(F)ncc1-c1cnc2c(c1)CN(c1ncnc3ccc(Cl)cc13)CC2 [Compound 310, 6-chloro-4-(3-(6-fluoro-4-methylpyridin-3-yl)-7,8-dihydro-1,6-naphthyridin-6(5H)-yl)quinazoline] | – | – | –
11 | 74% | 30 nM | Fc1ccc2ncnc(N3CCc4ncc(N5CCc6ncccc65)cc4C3)c2c1 [Compound 319, 4-(3-(2,3-dihydro-1H-pyrrolo[3,2-b]pyridin-1-yl)-7,8-dihydro-1,6-naphthyridin-6(5H)-yl)-6-fluoroquinazoline] | – | – | –
12 | 81% | 10 nM | Fc1ccc2ncnc(N3CCc4ncc(Nc5ccncc5F)cc4C3)c2c1 [Compound 315, N-(3-fluoropyridin-4-yl)-6-(6-fluoroquinazolin-4-yl)-5,6,7,8-tetrahydro-1,6-naphthyridin-3-amine] | – | – | –
